Measurements as given in patent US20240182444A1, “ANTI-VIRAL COMPOUNDS” (Aligos Therapeutics, Inc., priority 2022, published 2024).

How the values were obtained:
SARS-Cov-2 3CLpro = target: T1, SARS-Cov-2 3CLpro (Severe acute respiratory syndrome coronavirus 2, UniProt P0DTD1); test: SARS-Cov-2 3CLpro protease assay (SAMDI-MS); type: biochemical; details: 30 mins preincubation, duplex peptide substrates; read-out: SARS-Cov-2 (3CLpro IC50)
T1 construct: 3CLpro was added using a Multidrop Combi

[1] = tested on: SARS-CoV-2 B.1.1.7 lineage; test: microbe, parasite or virus in culture; type: cell-based; details: Severe acute respiratory syndrome coronavirus 2, 96 h; read-out: A549-dual_ACE2_TMPRSS2 (EC50)
human cathepsin L = target: T2, human cathepsin L (Homo sapiens, UniProt P07711); test: Cathepsin L assay; type: biochemical; details: 10 pM human cathepsin L, Z-FR-AMC 2 μM
T2 construct: purchased R&D Systems
Description: For the cathepsin L assay, 10 pM of human cathepsin L (R&D Systems; Minneapolis, MN) was preincubated for 30 mins with test compounds. Reactions were initiated by the addition of a peptide substrate Z-FR-AMC (final concentration 2 μM, Anaspec; Fremont, CA). Fluorescence was measured at 2-minute intervals for 30 mins using a 355/460 excitation/emission filter module on an Envision plate reader (Perkin Elmer; Waltham, MA). The IC50 values were calculated for each assay by fitting the curves using a four-parameter equation in GraphPad Prism.
Table 4 indicates related IC50 values for the tested compounds where ‘A’ indicates an IC50≥10000 nM, ‘B’ indicates an IC50 of ≥1000 nM and <10000 nM, ‘C’ indicates an IC50; ≥100 nM and <1000 nM, ‘D’ indicates an IC50<100 nM.

[2] = tested on: human beta-coronavirus OC43; test: OC43 coronavirus antiviral assay in HeLa cells; type: cell-based; details: Betacoronavirus 1, 144 h, OC43, 6 days at 33° C., cell-titer-glo
Description: (§1) The human beta-coronavirus OC43 was purchased from ATCC (Manassas, VA) and propagated using HCT-8 human colorectal epithelial cells (ATCC). HeLa human cervical epithelial cells (ATCC) were used as susceptible host cell lines and were cultured using EMEM media, supplemented with 10% fetal bovine serum (FBS), 1% (v/v) penicillin/streptomycin (P/S), 1% (v/v) HEPES and 1% (v/v) cellgro Glutagro™ supplement (all Corning, Manassas, VA) at 37° C. For the OC43 antiviral assay, 1.5×10^4 HeLa cells per well were plated in 100 μL complete media in white 96-well plates with clear bottoms at 37° C. for up to 24 h to facilitate attachment and allow cells to recover from seeding stresses. Next day, the cell culture medium was removed. Serially diluted compounds in 100 μL assay media (EMEM, 2% FBS, 1% P/S, 1% cellgro Glutagro™ supplement, 1% HEPES) were added to the cells and incubated for 4 h at 37° C. in a humidified 5% CO2 incubator. 100 μL of OC43 virus stock was diluted to a concentration known to produce optimal cytopathic effect, inducing 80-90% reduction in cell viability. 96-well plates were incubated for 6 days at 33° C.; each plate contains uninfected control wells as well as virus-infected wells that were not treated with compound. Cytotoxicity plates without the addition of OC43 virus were carried out in parallel. At the end of the incubation period, 100 μL cell culture supernatant was replaced with 100 μL cell-titer-glo reagent (Promega, Madison, WI) and incubated for at least 10 min at rt prior to measuring luminescence. Luminescence was measured on a Perkin Elmer (Waltham, MA) Envision plate reader. Antiviral % inhibition was calculated as follows: [(Compound treated cells infected sample)−(no compound infected control)]/[(Uninfected control)−(no compound infected control)]*100; Using GraphPad (San Diego, CA) prism software version 8.3.1, the antiviral dose-response plot was generated as a sigmoidal fit, log(inhibitor) vs response-variable slope (four parameters) model and the EC50 was calculated which is the predicted compound concentration corresponding to a 50% inhibition of the viral cytopathic effect.
(§2) Table 2 indicates related EC50 and CC50 values for the tested compounds ‘A’ indicates an EC50<100 nM, ‘B’ indicates an EC50 of ≥100 nM and <1000 nM, ‘C’ indicates an EC50≥1000 nM and <10000 nM and ‘D’ indicates an EC50≥10000 nM and <100000 nM. For CC50, the values are reported in micromolar (M), ‘A’ indicates a CC50≥10000 nM and ‘B’ indicates a CC50≥1 μM and <10 μM.

in vitro = details: human
[3] = Cytotoxicity in HeLa cells without OC43 virus; type: cell-based; details: human, HeLa cells (uninfected), in parallel
Description: as §1, §2

3Clpro = 3Clpro (Severe acute respiratory syndrome coronavirus 2, UniProt P0DTD1); details: cited from earlier work
SARS-CoV-2 [4] = details: VeroE6, A549-ACE2 and/or HeLa-ACE2; cited from earlier work
SARS-CoV-2 [5] = details: A549-ACE2 expressing TMPRSS2; cited from earlier work

T2 sequence (P07711 114-333): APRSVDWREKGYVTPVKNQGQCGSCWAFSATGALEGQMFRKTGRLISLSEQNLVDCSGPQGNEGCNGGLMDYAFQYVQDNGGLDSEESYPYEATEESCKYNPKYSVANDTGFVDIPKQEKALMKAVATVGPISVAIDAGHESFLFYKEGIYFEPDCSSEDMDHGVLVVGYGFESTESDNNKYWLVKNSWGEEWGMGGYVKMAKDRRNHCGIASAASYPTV

| SMILES | IC50 (SARS-Cov-2 3CLpro) [µM] | EC50 [1] [µM] | IC50 (human cathepsin L) [µM] | EC50 [2] [µM] | CC50 (in vitro) [µM] | CC50 at 6 days [3] [µM] | inhibitory effect on the 3Clpro (3Clpro) | inhibition of SARS-CoV-2 (SARS-CoV-2 [4]) | antiviral effect when TMPRSS2 was expressed (SARS-CoV-2 [5]) |
| --- | --- | --- | --- | --- | --- | --- | --- | --- | --- |
| CC(C)(C)[C@H](NC(=O)C(F)(F)F)C(=O)N1C[C@H]2[C@@H]([C@H]1C(=O)NC(C#N)c1cccnc1)[C@H]1C=C[C@@H]2C1 (stereo partly drawn) [Compound 3, (1R,2S,3S,6R,7S)—N-[cyano(pyridin-3-yl)methyl]-4-[(2S)-3,3-dimethyl-2-(2,2,2-trifluoroacetamido)butanoyl]-4-azatricyclo[5.2.1.0^{2,6}]dec-8-ene-3-carboxamide] | < 0.02 | 0.1 to 1 | ≥ 10 | 0.1 to 1 | > 1 | ≥ 10 | – | – | – |
| CN1CCN(C(=O)N[C@@H](Cc2ccccc2)C(=O)N[C@H](/C=C/S(=O)(=O)c2ccccc2)CCc2ccccc2)CC1 [Compound K117777] | – | – | – | – | – | – | lacks an inhibitory effect | potent inhibition | abolished |
| CC(C)(C)[C@H](NC(=O)C(F)(F)F)C(=O)N1C[C@H]2[C@@H]([C@H]1C(=O)NC(C#N)c1cnc3ccccn13)[C@H]1C=C[C@@H]2C1 (stereo partly drawn) [Compound 2, (1S,3aR,4S,7R,7aS)—N-(cyano(imidazo[1,2-a]pyridin-3-yl)methyl)-2-((S)-3,3-dimethyl-2-(2,2,2-trifluoroacetamido)butanoyl)-2,3,3a,4,7,7a-hexahydro-1H-4,7-methanoisoindole-1-carboxamide] | < 0.02 | 0.1 to 1 | ≥ 10 | 0.1 to 1 | > 1 | ≥ 10 | – | – | – |
| CC(C)(C)[C@H](NC(=O)C(F)(F)F)C(=O)N1C[C@H]2[C@@H]([C@H]1C(=O)NC(C#N)c1cncc3ccccc13)[C@H]1C=C[C@@H]2C1 (stereo partly drawn) [Compound 1, (1S,3aR,4S,7R,7aS)—N-(cyano(isoquinolin-4-yl)methyl)-2-((S)-3,3-dimethyl-2-(2,2,2-trifluoroacetamido)butanoyl)-2,3,3a,4,7,7a-hexahydro-1H-4,7-methanoisoindole-1-carboxamide] | < 0.02 | < 0.1 | ≥ 10 | < 0.1 | > 1 | ≥ 10 | – | – | – |
